Measurements reported in patent US20220370440A1 (Lead Discovery Center GmbH, priority 2018, published 2022).

Tests used:
EGFR wt = EGFR wt (Homo sapiens, UniProt P00533); assay: EGFR wt Lance assay; format: biochemical
Protocol: (§1) Inhibition is indicated as […] [nM] (“−”=not measured). Compounds having an activity designated as “A” provided an IC50≤100 nM; compounds having an activity designated as “B” provided an 100 nM<IC50≤500 nM; compounds having an activity designated as “C” provided an 500 nM<IC50≤1000 nM; compounds having an activity designated as “D” provided an 1000 nM<IC50≤100000 nM; and compounds having an activity designated as “E” provided an IC50>10000 nM.

A431 = A431 CellTiter-Glo; format: cell-based; conditions: Homo sapiens, A-431; 72 h compound incubation; read-out: A431 CTG IC50
In short: (§2)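 Luminescence from cellular ATP serves as the viability signal after cells are treated with compound dilutions for 72 h at 37° C. IC50 is derived by curve fitting, with DMSO-treated and 10 μM Staurosporine-treated wells defining the assay window.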

H1975 = H1975 CellTiter-Glo; format: cell-based; conditions: Homo sapiens, NCI-H1975; 72 h compound incubation; read-out: H1975 CTG IC50
In short: as §2

[1] = molecular target: Her2 Exon 20 INSYVMA Ba/F3 (Homo sapiens, UniProt P04626, DUP772-775, cells depend on it); assay: Her2 Exon 20 INSYVMA Ba/F3 CellTiter-Glo; format: cell-based; conditions: CellTiter-Glo, 72 h, read-out: Her2 Exon 20 INSYVMA Ba/F3 CTG IC50
In short: (§3)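 IC50 values, binned A (≤100 nM) through E (>10000 nM), come from luminescent ATP quantitation of viable mutant-driven Ba/F3 cells. Compound exposure lasted 72 h, starting 24 h post-seeding; DMSO and 10 μM staurosporine served as controls, Z′ ≥0.5 required.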

[2] = molecular target: EGFR Exon 20 INSNPH Ba/F3 (Homo sapiens, UniProt P00533, DUP771-773, cells depend on it); assay: EGFR Exon 20 INSNPH Ba/F3 CellTiter-Glo; format: cell-based; conditions: CellTiter-Glo, 72 h, read-out: EGFR Exon 20 INSNPH Ba/F3 CTG IC50
In short: as §3

EGFR T790ML858R = EGFR T790ML858R (Homo sapiens, UniProt P00533, L858R/T790M); assay: EGFR T790ML858R Lance assay; format: biochemical
Protocol: as §1

HER2 INS YVMA = molecular target: T1, HER2 INS YVMA (Homo sapiens, UniProt P04626, INS775YVMA); assay: Lance Kinase Activity Assay, HER2 INS YVMA (Her2 Exon 20 INSYVMA Lance); format: biochemical; conditions: biochemical Lance assay
T1 construct: purchased DPF
In short: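 Kinase phosphorylates a ULight-labelled peptide substrate; Eu anti-phospho antibody gives TR-FRET (ex 340 nm, em 665/615 nm). Compounds in 1:3 serial dilution over 8 steps, reaction started with ATP, 1 h at room temperature, stopped with EDTA-containing detection mix for 1 h. IC50 from sigmoidal dose-response curves.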

[3] = Metabolic stability in mouse liver microsomes without cofactor NADPH; format: in vitro ADME; conditions: 3 μM test compound, mouse liver microsomes, without NADPH, 50 min, 37° C., LC-MS/MS
From the text: There are two major groups of enzyme reactions catalyzed by drug metabolizing enzymes, the so called Phase I and Phase II reactions. The basic processes in phase I reactions are oxidation, reduction and/or hydrolysis mostly catalyzed by the cytochrome P450 (CYP) family of enzymes.
The following procedures describe the determination of the in vitro Phase I metabolic stability of test compounds using liver microsomes by measuring compound depletion over time. Test compound at the concentration of 3 μM was incubated with the liver microsomes from the mouse species and the experiment was performed without NADPH. The depletion of the test compounds was measured over time up to 50 minutes at 37° C. by LC-MS/MS. Different compounds were tested under these conditions for microsomal stability (see Table 5).

Sequence of EGFR wt (P00533 25-1210): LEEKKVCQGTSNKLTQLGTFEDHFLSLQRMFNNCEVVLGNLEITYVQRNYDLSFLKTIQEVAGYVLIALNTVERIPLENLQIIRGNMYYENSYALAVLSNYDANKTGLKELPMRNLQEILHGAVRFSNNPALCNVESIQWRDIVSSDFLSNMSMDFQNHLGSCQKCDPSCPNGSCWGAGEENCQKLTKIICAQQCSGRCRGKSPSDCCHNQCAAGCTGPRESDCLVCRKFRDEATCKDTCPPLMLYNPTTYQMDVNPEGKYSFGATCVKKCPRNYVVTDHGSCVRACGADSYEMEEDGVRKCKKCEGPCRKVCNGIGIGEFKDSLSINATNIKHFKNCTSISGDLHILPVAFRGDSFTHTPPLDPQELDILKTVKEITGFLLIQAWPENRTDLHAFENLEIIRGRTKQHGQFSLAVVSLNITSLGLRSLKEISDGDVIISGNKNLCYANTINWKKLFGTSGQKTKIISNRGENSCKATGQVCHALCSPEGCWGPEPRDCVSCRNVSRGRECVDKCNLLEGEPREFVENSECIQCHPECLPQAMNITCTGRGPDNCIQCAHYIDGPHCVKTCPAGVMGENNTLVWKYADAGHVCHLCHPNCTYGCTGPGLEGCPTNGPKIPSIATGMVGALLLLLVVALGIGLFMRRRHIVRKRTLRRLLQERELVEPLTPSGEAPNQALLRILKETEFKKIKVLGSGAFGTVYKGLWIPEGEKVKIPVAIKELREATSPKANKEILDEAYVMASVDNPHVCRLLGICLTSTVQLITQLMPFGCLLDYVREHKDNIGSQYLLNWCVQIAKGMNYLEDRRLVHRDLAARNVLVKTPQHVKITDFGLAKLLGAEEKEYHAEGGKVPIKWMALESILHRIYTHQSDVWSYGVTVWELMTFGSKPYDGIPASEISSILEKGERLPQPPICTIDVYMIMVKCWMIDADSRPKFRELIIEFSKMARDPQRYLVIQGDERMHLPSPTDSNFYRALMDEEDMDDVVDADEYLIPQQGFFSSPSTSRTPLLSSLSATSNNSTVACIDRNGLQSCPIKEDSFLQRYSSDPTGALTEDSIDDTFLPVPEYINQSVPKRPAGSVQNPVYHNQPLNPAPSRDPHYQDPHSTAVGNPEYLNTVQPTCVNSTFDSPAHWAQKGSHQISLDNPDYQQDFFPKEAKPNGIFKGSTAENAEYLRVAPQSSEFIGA
Sequence of EGFR Exon 20 INSNPH Ba/F3 (P00533 with tags, fused parts or gaps DUP771-773): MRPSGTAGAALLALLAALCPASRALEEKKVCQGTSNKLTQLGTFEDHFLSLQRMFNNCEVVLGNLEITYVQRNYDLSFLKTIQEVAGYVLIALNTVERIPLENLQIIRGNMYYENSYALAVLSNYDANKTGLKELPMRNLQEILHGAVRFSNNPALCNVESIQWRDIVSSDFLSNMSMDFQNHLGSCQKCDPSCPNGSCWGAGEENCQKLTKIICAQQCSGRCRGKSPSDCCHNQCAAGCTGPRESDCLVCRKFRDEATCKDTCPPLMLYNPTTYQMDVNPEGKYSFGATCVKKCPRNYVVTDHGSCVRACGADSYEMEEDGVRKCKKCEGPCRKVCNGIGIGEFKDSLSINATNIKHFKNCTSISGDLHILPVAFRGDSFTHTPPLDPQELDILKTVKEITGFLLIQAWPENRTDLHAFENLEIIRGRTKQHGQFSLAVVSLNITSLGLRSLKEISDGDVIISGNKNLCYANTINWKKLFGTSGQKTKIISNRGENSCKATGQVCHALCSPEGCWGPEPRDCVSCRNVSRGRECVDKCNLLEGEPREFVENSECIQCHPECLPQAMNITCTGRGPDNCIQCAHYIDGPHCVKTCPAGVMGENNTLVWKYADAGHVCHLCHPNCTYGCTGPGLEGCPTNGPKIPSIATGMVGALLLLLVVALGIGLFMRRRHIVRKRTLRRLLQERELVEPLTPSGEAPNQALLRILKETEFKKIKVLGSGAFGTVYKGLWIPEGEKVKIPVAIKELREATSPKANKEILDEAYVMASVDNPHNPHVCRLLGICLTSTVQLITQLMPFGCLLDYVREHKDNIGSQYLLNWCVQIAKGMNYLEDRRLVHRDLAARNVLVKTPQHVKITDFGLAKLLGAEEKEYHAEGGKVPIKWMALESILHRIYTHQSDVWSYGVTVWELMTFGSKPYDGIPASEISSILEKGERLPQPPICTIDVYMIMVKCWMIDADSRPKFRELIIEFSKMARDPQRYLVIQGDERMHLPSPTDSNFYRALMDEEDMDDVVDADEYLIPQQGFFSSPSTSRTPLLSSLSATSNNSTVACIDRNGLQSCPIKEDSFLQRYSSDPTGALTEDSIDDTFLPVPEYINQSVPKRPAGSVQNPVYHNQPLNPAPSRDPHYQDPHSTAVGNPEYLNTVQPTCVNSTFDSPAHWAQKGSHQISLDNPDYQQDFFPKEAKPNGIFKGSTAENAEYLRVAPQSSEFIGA
Sequence of EGFR T790ML858R (P00533 25-1210 T790M/L858R): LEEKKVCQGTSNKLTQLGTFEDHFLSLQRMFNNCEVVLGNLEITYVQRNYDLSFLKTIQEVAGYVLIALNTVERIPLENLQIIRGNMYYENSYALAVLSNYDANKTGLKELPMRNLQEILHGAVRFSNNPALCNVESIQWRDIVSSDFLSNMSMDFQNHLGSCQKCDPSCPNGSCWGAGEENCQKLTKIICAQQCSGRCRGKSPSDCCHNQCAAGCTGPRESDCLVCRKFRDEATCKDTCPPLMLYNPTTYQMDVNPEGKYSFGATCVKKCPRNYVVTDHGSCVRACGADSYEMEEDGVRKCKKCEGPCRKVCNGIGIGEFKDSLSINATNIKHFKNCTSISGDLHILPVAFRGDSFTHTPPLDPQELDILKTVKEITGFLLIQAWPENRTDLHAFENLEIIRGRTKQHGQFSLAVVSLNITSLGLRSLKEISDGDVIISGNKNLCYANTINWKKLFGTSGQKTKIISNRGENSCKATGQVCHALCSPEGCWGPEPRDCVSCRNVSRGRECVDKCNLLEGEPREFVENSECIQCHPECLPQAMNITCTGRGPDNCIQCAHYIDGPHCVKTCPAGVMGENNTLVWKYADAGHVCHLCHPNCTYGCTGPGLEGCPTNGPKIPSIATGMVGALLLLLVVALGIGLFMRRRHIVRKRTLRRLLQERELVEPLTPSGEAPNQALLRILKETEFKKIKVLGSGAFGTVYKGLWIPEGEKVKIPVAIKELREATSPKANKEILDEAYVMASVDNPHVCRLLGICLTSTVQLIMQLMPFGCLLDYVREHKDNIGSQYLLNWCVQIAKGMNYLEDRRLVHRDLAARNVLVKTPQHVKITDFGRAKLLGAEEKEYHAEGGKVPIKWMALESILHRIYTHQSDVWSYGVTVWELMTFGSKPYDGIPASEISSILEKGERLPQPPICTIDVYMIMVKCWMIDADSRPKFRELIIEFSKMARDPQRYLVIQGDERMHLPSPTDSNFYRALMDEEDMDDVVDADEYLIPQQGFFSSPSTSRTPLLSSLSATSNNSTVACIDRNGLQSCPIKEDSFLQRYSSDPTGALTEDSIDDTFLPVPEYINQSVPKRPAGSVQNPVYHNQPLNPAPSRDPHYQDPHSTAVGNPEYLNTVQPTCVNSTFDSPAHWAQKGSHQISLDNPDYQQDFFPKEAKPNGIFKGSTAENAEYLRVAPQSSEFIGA
T1 sequence (P04626 with tags, fused parts or gaps INS775YVMA): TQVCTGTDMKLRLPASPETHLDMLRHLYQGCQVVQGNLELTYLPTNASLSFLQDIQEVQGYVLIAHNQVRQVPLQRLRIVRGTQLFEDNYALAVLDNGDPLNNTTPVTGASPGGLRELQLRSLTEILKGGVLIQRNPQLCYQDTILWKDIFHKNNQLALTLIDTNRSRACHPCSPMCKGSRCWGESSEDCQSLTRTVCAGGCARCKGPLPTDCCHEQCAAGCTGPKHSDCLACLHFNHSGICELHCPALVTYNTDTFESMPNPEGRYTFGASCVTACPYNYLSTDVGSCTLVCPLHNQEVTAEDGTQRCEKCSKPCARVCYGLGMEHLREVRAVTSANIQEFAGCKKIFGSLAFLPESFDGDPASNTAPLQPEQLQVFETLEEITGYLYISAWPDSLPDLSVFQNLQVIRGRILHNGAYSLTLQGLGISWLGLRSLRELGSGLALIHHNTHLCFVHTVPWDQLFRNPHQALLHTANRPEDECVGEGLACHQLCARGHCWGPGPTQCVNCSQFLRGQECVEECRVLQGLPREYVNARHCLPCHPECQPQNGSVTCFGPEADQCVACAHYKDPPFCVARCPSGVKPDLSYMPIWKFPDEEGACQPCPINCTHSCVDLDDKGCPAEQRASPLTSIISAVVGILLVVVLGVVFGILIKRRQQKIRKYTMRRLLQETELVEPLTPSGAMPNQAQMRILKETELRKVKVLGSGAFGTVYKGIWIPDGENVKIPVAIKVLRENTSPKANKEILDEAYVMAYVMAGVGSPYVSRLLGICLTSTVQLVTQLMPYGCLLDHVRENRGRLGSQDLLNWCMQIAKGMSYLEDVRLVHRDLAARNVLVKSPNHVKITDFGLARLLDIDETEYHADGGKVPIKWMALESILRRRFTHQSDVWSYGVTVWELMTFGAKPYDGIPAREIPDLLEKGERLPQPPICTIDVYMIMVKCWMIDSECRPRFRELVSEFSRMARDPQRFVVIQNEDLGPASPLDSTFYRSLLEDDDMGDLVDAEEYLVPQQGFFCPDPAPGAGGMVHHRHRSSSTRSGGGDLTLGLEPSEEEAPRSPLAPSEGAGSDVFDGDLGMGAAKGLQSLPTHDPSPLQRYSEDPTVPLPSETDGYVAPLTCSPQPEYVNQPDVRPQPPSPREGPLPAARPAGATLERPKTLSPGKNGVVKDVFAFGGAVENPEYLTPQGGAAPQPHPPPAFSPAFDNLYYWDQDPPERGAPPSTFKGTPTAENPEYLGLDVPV

## C=CC(=O)N1CCc2ccc(-c3c(-c4ccc(N5CCN(C)CC5)nc4)[nH]c4nccc(Cl)c34)cc21 [Example 70, 1-(6-(4-chloro-2-(6-(4-methylpiperazin-1-yl)pyridin-3-yl)-1H-pyrrolo[2,3-b]pyridin-3-yl)indolin-1-yl)prop-2-en-1-one]
EGFR wt
  IC50: ≤ 100 nM
A431
  IC50: 500 to 1000 nM
H1975
  IC50: 100 to 500 nM
[1]
  GI50: 100 to 500 nM
[2]
  GI50: 500 to 1000 nM
EGFR T790ML858R
  IC50: ≤ 100 nM
HER2 INS YVMA
  IC50: ≤ 100 nM
[3]
  Stability in presence of mouse liver microsomes without cofactor NADPH [% remaining after 50 min]: >99 % remaining after 50 min

## C=CC(=O)Nc1cc(-c2c(-c3ccc(N4CCN(C)CC4)nc3)[nH]c3nccc(Cl)c23)ccc1C [Example 19, N-(5-(4-chloro-2-(6-(4-methylpiperazin-1-yl)pyridin-3-yl)-1H-pyrrolo[2,3-b]pyridin-3-yl)-2-methylphenyl)acrylamide]
EGFR wt
  IC50: ≤ 100 nM
A431
  IC50: 1000 to 100000 nM
H1975
  IC50: 100 to 500 nM
[1]
  GI50: 500 to 1000 nM
[2]
  GI50: 500 to 1000 nM
EGFR T790ML858R
  IC50: ≤ 100 nM
HER2 INS YVMA
  IC50: 100 to 500 nM
[3]
  Stability in presence of mouse liver microsomes without cofactor NADPH [% remaining after 50 min]: >99 % remaining after 50 min

## C=CC(=O)N1CCc2ccc(-c3c(-c4cccc(CN5CCN(C)CC5)c4)[nH]c4nccc(Cl)c34)cc21 [Example 69, 1-(6-(4-chloro-2-(3-((4-methylpiperazin-1-yl)methyl)phenyl)-1H-pyrrolo[2,3-b]pyridin-3-yl)indolin-1-yl)prop-2-en-1-one]
EGFR wt
  IC50: ≤ 100 nM
A431
  IC50: 500 to 1000 nM
H1975
  IC50: ≤ 100 nM
[1]
  GI50: 100 to 500 nM
[2]
  GI50: 100 to 500 nM
EGFR T790ML858R
  IC50: ≤ 100 nM
HER2 INS YVMA
  IC50: ≤ 100 nM
[3]
  Stability in presence of mouse liver microsomes without cofactor NADPH [% remaining after 50 min]: 98 % remaining after 50 min

## C=CC(=O)Nc1cc(-c2c(-c3ccc(N4CCN(C)CC4)cc3)[nH]c3ncc(Cl)c(C)c23)ccc1C [Example 155]
EGFR wt
  IC50: ≤ 100 nM
A431
  IC50: 1000 to 100000 nM
H1975
  IC50: ≤ 100 nM
[1]
  GI50: 500 to 1000 nM
[2]
  GI50: 100 to 500 nM
EGFR T790ML858R
  IC50: ≤ 100 nM
HER2 INS YVMA
  IC50: ≤ 100 nM
[3]
  Stability in presence of mouse liver microsomes without cofactor NADPH [% remaining after 50 min]: >99 % remaining after 50 min

## C=CC(=O)Nc1cc(-c2c(-c3ccc(N4CCN(C)CC4)cc3)[nH]c3ncc(C(=O)OC)cc23)ccc1C [Example 134, Methyl 3-(3-acrylamido-4-methylphenyl)-2-(4-(4-methylpiperazin-1-yl)phenyl)-1H-pyrrolo[2,3-b]pyridine-5-carboxylate 2,2,2-trifluoroacetate]
EGFR wt
  IC50: ≤ 100 nM
A431
  IC50: 1000 to 100000 nM
H1975
  IC50: 100 to 500 nM
[1]
  GI50: 100 to 500 nM
[2]
  GI50: 100 to 500 nM
EGFR T790ML858R
  IC50: ≤ 100 nM
HER2 INS YVMA
  IC50: ≤ 100 nM
[3]
  Stability in presence of mouse liver microsomes without cofactor NADPH [% remaining after 50 min]: >99 % remaining after 50 min

## C=CC(=O)Nc1cc(-c2c(-c3ccnc(N4CCOCC4)c3)[nH]c3ncccc23)ccc1C [Example 80, N-(2-methyl-5-(2-(2-morpholinopyridin-4-yl)-1H-pyrrolo[2,3-b]pyridin-3-yl)phenyl)acrylamide]
EGFR wt
  IC50: 100 to 500 nM
A431
  IC50: 1000 to 100000 nM
H1975
  IC50: 100 to 500 nM
[1]
  GI50: 1000 to 10000 nM
[2]
  GI50: 1000 to 10000 nM
EGFR T790ML858R
  IC50: ≤ 100 nM
HER2 INS YVMA
  IC50: 500 to 1000 nM
[3]
  Stability in presence of mouse liver microsomes without cofactor NADPH [% remaining after 50 min]: >99 % remaining after 50 min

## C=CC(=O)Nc1cc(-c2c(-c3ccc(CN4CCN(C)CC4)cc3)[nH]c3ncc(C(=O)OC(C)C)cc23)ccc1C [Example 160, isopropyl 3-(3-acrylamido-4-methylphenyl)-2-(4-((4-methylpiperazin-1-yl)methyl)phenyl)-1H-pyrrolo[2,3-b]pyridine-5-carboxylate]
EGFR wt
  IC50: ≤ 100 nM
A431
  IC50: 1000 to 100000 nM
H1975
  IC50: 100 to 500 nM
[1]
  GI50: 100 to 500 nM
[2]
  GI50: 100 to 500 nM
EGFR T790ML858R
  IC50: ≤ 100 nM
HER2 INS YVMA
  IC50: ≤ 100 nM
[3]
  Stability in presence of mouse liver microsomes without cofactor NADPH [% remaining after 50 min]: >99 % remaining after 50 min

## C=CC(=O)Nc1cc(-c2c(-c3ccc(CCN(C)C)cc3)[nH]c3ncc(C(=O)OC(C)C)cc23)ccc1C [Example 161, isopropyl 3-(3-acrylamido-4-methylphenyl)-2-(4-(2-(dimethylamino)ethyl)phenyl)-1H-pyrrolo[2,3-b]pyridine-5-carboxylate]
EGFR wt
  IC50: ≤ 100 nM
A431
  IC50: 1000 to 100000 nM
H1975
  IC50: 100 to 500 nM
[1]
  GI50: 100 to 500 nM
[2]
  GI50: 100 to 500 nM
EGFR T790ML858R
  IC50: ≤ 100 nM
HER2 INS YVMA
  IC50: ≤ 100 nM
[3]
  Stability in presence of mouse liver microsomes without cofactor NADPH [% remaining after 50 min]: >99 % remaining after 50 min

## C=CC(=O)N1CCc2ccc(-c3c(-c4ccc(OCCN5CCCC5)cc4)[nH]c4nccc(OC)c34)cc21 [Example 112, 1-(6-(4-methoxy-2-(4-(2-(pyrrolidin-1-yl)ethoxy)phenyl)-1H-pyrrolo[2,3-b]pyridin-3-yl)indolin-1-yl)prop-2-en-1-one]
EGFR wt
  IC50: ≤ 100 nM
A431
  IC50: 1000 to 100000 nM
H1975
  IC50: 100 to 500 nM
[1]
  GI50: 500 to 1000 nM
[2]
  GI50: 500 to 1000 nM
EGFR T790ML858R
  IC50: ≤ 100 nM
HER2 INS YVMA
  IC50: ≤ 100 nM
[3]
  Stability in presence of mouse liver microsomes without cofactor NADPH [% remaining after 50 min]: 79 % remaining after 50 min

## C=CC(=O)N1CCc2ccc(-c3c(-c4ccc(C(=O)N5CCN(C)CC5)cc4)[nH]c4nccc(Cl)c34)cc21 [Example 66, 1-(6-(4-chloro-2-(4-(4-methylpiperazine-1-carbonyl)phenyl)-1H-pyrrolo[2,3-b]pyridin-3-yl)indolin-1-yl)prop-2-en-1-one]
EGFR wt
  IC50: ≤ 100 nM
A431
  IC50: 1000 to 100000 nM
H1975
  IC50: 100 to 500 nM
[1]
  GI50: 100 to 500 nM
[2]
  GI50: 500 to 1000 nM
EGFR T790ML858R
  IC50: ≤ 100 nM
HER2 INS YVMA
  IC50: ≤ 100 nM
[3]
  Stability in presence of mouse liver microsomes without cofactor NADPH [% remaining after 50 min]: >99 % remaining after 50 min

## C=CC(=O)N1CCOc2ccc(-c3c(-c4ccc(N5CCN(CC)CC5)cc4)[nH]c4nccc(Cl)c34)cc21 [Example 99, 1-(6-(4-chloro-2-(4-(4-ethylpiperazin-1-yl)phenyl)-1H-pyrrolo[2,3-b]pyridin-3-yl)-2H-benzo[b][1,4]oxazin-4(3H)-yl)prop-2-en-1-one]
EGFR wt
  IC50: ≤ 100 nM
A431
  IC50: 1000 to 100000 nM
H1975
  IC50: 100 to 500 nM
[1]
  GI50: 100 to 500 nM
[2]
  GI50: 100 to 500 nM
EGFR T790ML858R
  IC50: ≤ 100 nM
HER2 INS YVMA
  IC50: ≤ 100 nM
[3]
  Stability in presence of mouse liver microsomes without cofactor NADPH [% remaining after 50 min]: >99 % remaining after 50 min

## C=CC(=O)N1CCc2ccc(-c3c(-c4ccc(N5CCN(C)CC5)cc4)[nH]c4nccc(OC(C)C)c34)cc21 [Example 115, 1-(6-(4-isopropoxy-2-(4-(4-methylpiperazin-1-yl)phenyl)-1H-pyrrolo[2,3-b]pyridin-3-yl)indolin-1-yl)prop-2-en-1-one 2,2,2-trifluoroacetate]
EGFR wt
  IC50: ≤ 100 nM
A431
  IC50: 500 to 1000 nM
H1975
  IC50: ≤ 100 nM
[1]
  GI50: 100 to 500 nM
[2]
  GI50: 100 to 500 nM
EGFR T790ML858R
  IC50: ≤ 100 nM
HER2 INS YVMA
  IC50: ≤ 100 nM
[3]
  Stability in presence of mouse liver microsomes without cofactor NADPH [% remaining after 50 min]: >99 % remaining after 50 min

## C=CC(=O)Nc1cc(-c2c(-c3ccc(N4CCN(CC)CC4)cc3)[nH]c3ncc(C(=O)OC(C)C)cc23)ccc1C [Example 157, isopropyl 3-(3-acrylamido-4-methylphenyl)-2-(4-(4-ethylpiperazin-1-yl)phenyl)-1H-pyrrolo[2,3-b]pyridine-5-carboxylate]
EGFR wt
  IC50: ≤ 100 nM
A431
  IC50: 1000 to 100000 nM
H1975
  IC50: 100 to 500 nM
[1]
  GI50: 100 to 500 nM
[2]
  GI50: 100 to 500 nM
EGFR T790ML858R
  IC50: ≤ 100 nM
HER2 INS YVMA
  IC50: ≤ 100 nM
[3]
  Stability in presence of mouse liver microsomes without cofactor NADPH [% remaining after 50 min]: >99 % remaining after 50 min
